The subject of this assay is BDF1 mice, intracerebral L1210 leukemia, survival T/C. Nature of the assay: NCI In Vivo Anticancer Drug Screen. Data for tumor model L1210 Leukemia (intracerebral) in B6D2F1 (BDF1) mice. Conditions: higher = longer survival. Put shortly:
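Antitumour effect is judged in mice with transplanted tumour by comparing survival of treated (T) against vehicle-dosed (C) groups as T/C.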

Where [1] appears, read: endpoint: mean survival time, dose: 26.0 mg/kg/injection, schedule: Q01DX001 (ip), vehicle: carboxymethylcellulose (CMC).

Where “and” joins values, the source holds several entries; their conditions need not be identical. Equal values may be shown once. Toxic doses and inconclusive results are not listed.

As to `S=c1nc[nH]c2nc[nH]c12`, the T/C was 122 % of control (endpoint: mean survival time, dose: 5.0 mg/kg/injection, schedule: Q01DX009 (ip), vehicle: alkali diluted with saline); 114 % of control (endpoint: mean survival time, dose: 6.0 mg/kg/injection, schedule: Q01DX015 (ip), vehicle: alkali diluted with saline); 120 % of control (endpoint: mean survival time, dose: 9.0 mg/kg/injection, schedule: Q01DX015 (ip), vehicle: alkali diluted with saline); 120 % of control (endpoint: mean survival time, dose: 14.0 mg/kg/injection, schedule: Q01DX015 (ip), vehicle: alkali diluted with saline); 111 % of control (endpoint: mean survival time, dose: 60.0 mg/kg/injection, schedule: Q01DX001 (ip), vehicle: alkali diluted with saline); 181 % of control (endpoint: mean survival time, dose: 80.0 mg/kg/injection, schedule: Q01DX009 (ip), vehicle: alkali diluted with saline). In addition, the T/C was 117 % of control (endpoint: mean survival time, dose: 90.0 mg/kg/injection, schedule: Q01DX001 (ip), vehicle: alkali diluted with saline); 115 % of control (endpoint: mean survival time, dose: 135.0 mg/kg/injection, schedule: Q01DX001 (ip), vehicle: alkali diluted with saline); 115 % of control (endpoint: median survival time, dose: 100.0 mg/kg/injection, schedule: Q01DX001 (oral), vehicle: saline with Tween-80); 113 % of control (endpoint: median survival time, dose: 200.0 mg/kg/injection, schedule: Q01DX001 (oral), vehicle: saline with Tween-80); 118 % of control (endpoint: median survival time, dose: 400.0 mg/kg/injection, schedule: Q01DX001 (oral), vehicle: saline with Tween-80).
As to `OCCN1CCN(CCCN2c3ccccc3Sc3ccc(C(F)(F)F)cc32)CC1`, the T/C reads like this: (endpoint: mean survival time, dose: 12.5 mg/kg/injection, schedule: Q04DX003 (ip), vehicle: saline) 102 % of control; (endpoint: mean survival time, dose: 25.0 mg/kg/injection, schedule: Q04DX003 (ip), vehicle: saline) 106 % of control; (endpoint: mean survival time, dose: 50.0 mg/kg/injection, schedule: Q04DX003 (ip), vehicle: saline) 112 % of control; (endpoint: mean survival time, dose: 100.0 mg/kg/injection, schedule: Q04DX003 (ip), vehicle: saline) 94 % of control.
With `NC(=O)N(CCCl)N=O`, the T/C was 115 % of control (endpoint: mean survival time, dose: 1.2 mg/kg/injection, schedule: Q01DX001 (ip), vehicle: saline); 112 % of control (endpoint: mean survival time, dose: 1.8 mg/kg/injection, schedule: Q01DX001 (ip), vehicle: saline); 163 % of control (endpoint: mean survival time, dose: 3.6 mg/kg/injection, schedule: Q01DX001 (ip), vehicle: saline); 176 % of control and 187 % of control (endpoint: mean survival time, dose: 5.0 mg/kg/injection, schedule: Q01DX001 (ip), vehicle: carboxymethylcellulose (CMC)); 159 % of control and 229 % of control (endpoint: mean survival time, dose: 7.2 mg/kg/injection, schedule: Q01DX001 (ip), vehicle: saline); 108 % of control (endpoint: mean survival time, dose: 7.5 mg/kg/injection, schedule: Q01DX001 (ip), vehicle: carboxymethylcellulose (CMC)).
For `O=NN(CCCl)C(=O)Nc1ccc(SCC(=O)O)cc1`, the T/C was 95 % of control (endpoint: mean survival time, dose: 12.0 mg/kg/injection, schedule: Q01DX001 (ip), vehicle: carboxymethylcellulose (CMC)); 96 % of control (endpoint: mean survival time, dose: 18.0 mg/kg/injection, schedule: Q01DX001 (ip), vehicle: carboxymethylcellulose (CMC)); 88 % of control under setting [1].
Take `O=NN(CCCl)C(=O)N[C@H]1CCCC[C@@H]1Cl`: the T/C is 102 % of control and 96 % of control (endpoint: mean survival time, dose: 5.0 mg/kg/injection, schedule: Q01DX001 (ip), vehicle: other); 106 % of control and 113 % of control (endpoint: mean survival time, dose: 10.0 mg/kg/injection, schedule: Q01DX001 (ip), vehicle: other); 120 % of control (endpoint: mean survival time, dose: 13.0 mg/kg/injection, schedule: Q01DX001 (ip), vehicle: carboxymethylcellulose (CMC)); 190 % of control and 226 % of control and 230 % of control (endpoint: mean survival time, dose: 13.75 mg/kg/injection, schedule: Q01DX001 (oral), vehicle: other); 158 % of control and 165 % of control and 216 % of control (endpoint: mean survival time, dose: 15.25 mg/kg/injection, schedule: Q01DX001 (ip), vehicle: other); 152 % of control (endpoint: mean survival time, dose: 19.0 mg/kg/injection, schedule: Q01DX001 (ip), vehicle: carboxymethylcellulose (CMC)). Further, the T/C by setting is: (endpoint: mean survival time, dose: 20.0 mg/kg/injection, schedule: Q01DX001 (ip), vehicle: other) 175 % of control and 181 % of control; under setting [1], 164 % of control and 221 % of control; (endpoint: mean survival time, dose: 27.5 mg/kg/injection, schedule: Q01DX001 (oral), vehicle: other) 315 % of control and 337 % of control and 442 % of control; (endpoint: mean survival time, dose: 30.5 mg/kg/injection, schedule: Q01DX001 (ip), vehicle: carboxymethylcellulose (CMC)) 163 % of control; (endpoint: mean survival time, dose: 30.5 mg/kg/injection, schedule: Q01DX001 (ip), vehicle: other) 278 % of control and 293 % of control and 361 % of control; (endpoint: mean survival time, dose: 40.0 mg/kg/injection, schedule: Q01DX001 (ip), vehicle: carboxymethylcellulose (CMC)) 228 % of control and 310 % of control. Further, the T/C runs as follows: (endpoint: mean survival time, dose: 41.0 mg/kg/injection, schedule: Q01DX001 (ip), vehicle: other) 317 % of control and 391 % of control; (endpoint: mean survival time, dose: 46.0 mg/kg/injection, schedule: Q01DX001 (ip), vehicle: carboxymethylcellulose (CMC)) 284 % of control; (endpoint: mean survival time, dose: 55.0 mg/kg/injection, schedule: Q01DX001 (oral), vehicle: other) 184 % of control and 271 % of control and 351 % of control; (endpoint: mean survival time, dose: 60.0 mg/kg/injection, schedule: Q01DX001 (ip), vehicle: carboxymethylcellulose (CMC)) 297 % of control; (endpoint: mean survival time, dose: 61.0 mg/kg/injection, schedule: Q01DX001 (ip), vehicle: carboxymethylcellulose (CMC)) 274 % of control; (endpoint: mean survival time, dose: 61.0 mg/kg/injection, schedule: Q01DX001 (ip), vehicle: other) 178 % of control and 254 % of control. For the same compound, for the setting “endpoint: mean survival time, dose: 83.0 mg/kg/injection, schedule: Q01DX001 (ip), vehicle: other”, the T/C is 270 % of control and 419 % of control.
Turning to `CC(=O)OCC1OC(n2cnc3c(=S)nc[nH]c32)C(OC(C)=O)C1OC(C)=O` (stereo not drawn), the T/C is, setting by setting: (endpoint: mean survival time, dose: 25.0 mg/kg/injection, schedule: Q01DX Z (ip), vehicle: carboxymethylcellulose (CMC)) 112 % of control and 117 % of control; (endpoint: mean survival time, dose: 100.0 mg/kg/injection, schedule: Q01DX Z (ip), vehicle: carboxymethylcellulose (CMC)) 157 % of control; (endpoint: mean survival time, dose: 200.0 mg/kg/injection, schedule: Q01DX Z (ip), vehicle: carboxymethylcellulose (CMC)) 121 % of control and 87 % of control.
Regarding `O=NN1CCCNC1=O`, the T/C runs as follows: (endpoint: mean survival time, dose: 75.0 mg/kg/injection, schedule: Q01DX001 (ip), vehicle: carboxymethylcellulose (CMC)) 119 % of control; (endpoint: mean survival time, dose: 111.0 mg/kg/injection, schedule: Q01DX001 (ip), vehicle: carboxymethylcellulose (CMC)) 117 % of control; (endpoint: mean survival time, dose: 150.0 mg/kg/injection, schedule: Q01DX001 (ip), vehicle: carboxymethylcellulose (CMC)) 153 % of control; (endpoint: mean survival time, dose: 167.0 mg/kg/injection, schedule: Q01DX001 (ip), vehicle: carboxymethylcellulose (CMC)) 186 % of control; (endpoint: mean survival time, dose: 250.0 mg/kg/injection, schedule: Q01DX001 (ip), vehicle: carboxymethylcellulose (CMC)) 91 % of control.
`O=NN(CCCl)C(=O)NC1CSCSC1`: the T/C is 103 % of control and 98 % of control (endpoint: mean survival time, dose: 2.0 mg/kg/injection, schedule: Q01DX001 (ip), vehicle: other); 153 % of control and 196 % of control (endpoint: mean survival time, dose: 15.0 mg/kg/injection, schedule: Q01DX001 (ip), vehicle: other); 360 % of control and 379 % of control (endpoint: mean survival time, dose: 22.0 mg/kg/injection, schedule: Q01DX001 (ip), vehicle: other); 89 % of control (endpoint: mean survival time, dose: 50.0 mg/kg/injection, schedule: Q01DX001 (ip), vehicle: other).
`COc1ccc(NC(=O)N(CCCl)N=O)cc1`: the T/C is, setting by setting: (endpoint: mean survival time, dose: 4.4 mg/kg/injection, schedule: Q01DX015 (ip), vehicle: saline) 105 % of control; (endpoint: mean survival time, dose: 6.6 mg/kg/injection, schedule: Q01DX015 (ip), vehicle: saline) 113 % of control; (endpoint: mean survival time, dose: 9.9 mg/kg/injection, schedule: Q01DX001 (ip), vehicle: carboxymethylcellulose (CMC)) 104 % of control; (endpoint: mean survival time, dose: 10.0 mg/kg/injection, schedule: Q01DX015 (ip), vehicle: saline) 113 % of control; (endpoint: mean survival time, dose: 15.0 mg/kg/injection, schedule: Q01DX001 (ip), vehicle: saline) 102 % of control; (endpoint: mean survival time, dose: 15.0 mg/kg/injection, schedule: Q01DX015 (ip), vehicle: saline) 124 % of control. For the same compound, the T/C is 108 % of control (endpoint: mean survival time, dose: 19.8 mg/kg/injection, schedule: Q01DX001 (ip), vehicle: carboxymethylcellulose (CMC)); 104 % of control (endpoint: mean survival time, dose: 22.0 mg/kg/injection, schedule: Q01DX015 (ip), vehicle: saline); 105 % of control (endpoint: mean survival time, dose: 30.0 mg/kg/injection, schedule: Q01DX001 (ip), vehicle: saline); 102 % of control (endpoint: mean survival time, dose: 39.6 mg/kg/injection, schedule: Q01DX001 (ip), vehicle: carboxymethylcellulose (CMC)); 108 % of control (endpoint: mean survival time, dose: 60.0 mg/kg/injection, schedule: Q01DX001 (ip), vehicle: saline); 113 % of control (endpoint: mean survival time, dose: 120.0 mg/kg/injection, schedule: Q01DX001 (ip), vehicle: saline). Also, for the setting “endpoint: mean survival time, dose: 240.0 mg/kg/injection, schedule: Q01DX001 (ip), vehicle: saline”, the T/C was 111 % of control.
